# Assay results taken from ChEMBL document CHEMBL1799932, “Antimalarial pyrido[1,2-a]benzimidazoles” (J Med Chem, 2011).
# pIC50: −log10 of the molar value.
# Experiments:
# [1] = test system: L6; assay: Cytotoxicity at rat L6 cells after 72 hrs by microplate alamar blue assay; type: cell-based; settings: l6
# [2] = test system: Rattus norvegicus; assay: Apparent half life in fasted Sprague-Dawley rat assessed as 1-(2-Diethylaminoethylamino)-3-[4-(trifluoromethyl)phenyl]-pyrido[1,2-a]benzimidazole-4-carbonitrile at 5 mg/kg, iv after 48 hrs by LC-MS analysis; type: ADME, organism-based; design: dose 5 mg/kg, route intravenous; settings: in vivo
# [3] = Metabolic stability in mouse liver microsomes assessed as intrinsic clearance per mg protein after 60 mins by LC-MS analysis; type: ADME, Microsome
# [4] = test system: Rattus norvegicus; assay: Apparent volume of distribution in fasted Sprague-Dawley rat assessed as 1-(2-Diethylaminoethylamino)-3-[4-(trifluoromethyl)phenyl]-pyrido[1,2-a]benzimidazole-4-carbonitrile at 5 mg/kg, iv after 48 hrs by LC-MS analysis; type: ADME, organism-based; design: dose 5 mg/kg, route intravenous; settings: in vivo
# [5] = Metabolic stability in human liver microsomes assessed as intrinsic clearance per mg protein after 60 mins by LC-MS analysis; type: ADME, Microsome
# [6] = Metabolic stability in rat liver microsomes assessed as intrinsic clearance per mg protein after 60 mins by LC-MS analysis; type: ADME, Microsome
# [7] = test system: Plasmodium berghei; assay: Antimalarial activity against GFP-transfected Plasmodium berghei strain ANKA infected in NMRI mouse assessed as reduction in parasitemia at 50 mg/kg/day, ip administered for 4 consecutive days measured 24 hrs after last treatment by FACS analysis relative to control; type: functional; design: scale not given: the % may be the effect or the level left; settings: route intraperitoneal
# [8] = test system: Rattus norvegicus; assay: Tmax in fasted Sprague-Dawley rat assessed as 1-(2-Ethylaminoethylamino)-3-[4-(trifluoromethyl)phenyl]- pyrido[1,2-a]benzimidazole-4-carbonitrile level at 5 mg/kg, iv after 48 hrs by LC-MS analysis; type: ADME, organism-based; design: dose 5 mg/kg, route intravenous; settings: in vivo
# [9] = test system: Rattus norvegicus; assay: Cmax in fasted Sprague-Dawley rat assessed as 1-(2-Ethylaminoethylamino)-3-[4-(trifluoromethyl)phenyl]- pyrido[1,2-a]benzimidazole-4-carbonitrile level at 5 mg/kg, iv after 48 hrs by LC-MS analysis; type: ADME, organism-based; design: dose 5 mg/kg, route intravenous; settings: in vivo
# [10] = test system: Rattus norvegicus; assay: Tmax in fasted Sprague-Dawley rat assessed as 1-(2-Ethylaminoethylamino)-3-[4-(trifluoromethyl)phenyl]- pyrido[1,2-a]benzimidazole-4-carbonitrile level at 20 mg/kg, po after 48 hrs by LC-MS analysis; type: ADME, organism-based; design: dose 20 mg/kg, route oral; settings: in vivo
# [11] = test system: Rattus norvegicus; assay: AUC (0 to tlast) in fasted Sprague-Dawley rat assessed as 1-(2-Ethylaminoethylamino)-3-[4-(trifluoromethyl)phenyl]- pyrido[1,2-a]benzimidazole-4-carbonitrile level at 20 mg/kg, po after 48 hrs by LC-MS analysis; type: ADME, organism-based, Plasma; design: time < 48 hr, dose 20 mg/kg, route oral; settings: in vivo
# [12] = test system: Rattus norvegicus; assay: Cmax in fasted Sprague-Dawley rat assessed as 1-(2-Ethylaminoethylamino)-3-[4-(trifluoromethyl)phenyl]- pyrido[1,2-a]benzimidazole-4-carbonitrile level at 20 mg/kg, po after 48 hrs by LC-MS analysis; type: ADME, organism-based; design: dose 20 mg/kg, route oral; settings: in vivo
# [13] = test system: Plasmodium berghei; assay: Antimalarial activity against GFP-transfected Plasmodium berghei strain ANKA infected in NMRI mouse assessed as increase in median survival time at 50 mg/kg/day, ip administered for 4 days measured up to 30 days post infection (reference value: 5 to 7 days); type: functional; settings: route intraperitoneal
# [14] = test system: Plasmodium berghei; assay: Antimalarial activity against GFP-transfected Plasmodium berghei strain ANKA infected in NMRI mouse assessed as reduction in parasitemia at 100 mg/kg/day, po administered for 4 consecutive days measured 24 hrs after last treatment by FACS analysis relative to control; type: functional; design: scale not given: the % may be the effect or the level left
# [15] = test system: Plasmodium berghei; assay: Antimalarial activity against GFP-transfected Plasmodium berghei strain ANKA infected in NMRI mouse assessed as increase in median survival time at 100 mg/kg/day, po administered for 4 days measured up to 30 days post infection (reference value: 5 to 7 days); type: functional
# [16] = test system: Plasmodium berghei; assay: Antimalarial activity against GFP-transfected Plasmodium berghei strain ANKA infected in NMRI mouse assessed as reduction in parasitemia at 50 mg/kg, po administered as single dose measured on day 4 by FACS analysis; type: functional; design: scale not given: the % may be the effect or the level left
# [17] = test system: Plasmodium berghei; assay: Antimalarial activity against GFP-transfected Plasmodium berghei strain ANKA infected in NMRI mouse assessed as reduction in parasitemia at 50 mg/kg, po administered as single dose measured on day 5 by FACS analysis; type: functional; design: scale not given: the % may be the effect or the level left
# [18] = test system: Plasmodium berghei; assay: Antimalarial activity against GFP-transfected Plasmodium berghei strain ANKA infected in NMRI mouse assessed as reduction in parasitemia at 25 mg/kg, po administered as single dose measured on day 3 by FACS analysis; type: functional; design: scale not given: the % may be the effect or the level left
# [19] = test system: Plasmodium berghei; assay: Antimalarial activity against GFP-transfected Plasmodium berghei strain ANKA infected in NMRI mouse assessed as reduction in parasitemia at 25 mg/kg, po administered as single dose measured on day 5 by FACS analysis; type: functional; design: scale not given: the % may be the effect or the level left
# [20] = Metabolic stability in rat liver microsomes assessed as degradation half life after 60 mins by LC-MS analysis; type: ADME, Microsome
# [21] = Metabolic stability in mouse liver microsomes assessed as degradation half life after 60 mins by LC-MS analysis; type: ADME, Microsome
# [22] = test system: Rattus norvegicus; assay: AUC (0 to tlast) in fasted Sprague-Dawley rat assessed as 1-(2-Diethylaminoethylamino)-3-[4-(trifluoromethyl)phenyl]-pyrido[1,2-a]benzimidazole-4-carbonitrile at 5 mg/kg, iv after 48 hrs by LC-MS analysis; type: ADME, organism-based, Plasma; design: time < 48 hr, dose 5 mg/kg, route intravenous; settings: in vivo
# [23] = test system: Plasma; assay: Plasma protein binding in mouse assessed as 1-(2-Diethylaminoethylamino)-3-[4-(trifluoromethyl)phenyl]-pyrido[1,2-a]benzimidazole-4-carbonitrile at 5 mg/kg, iv after 48 hrs by LC-MS analysis; type: ADME, organism-based; design: dose 5 mg/kg, route intravenous; settings: in vivo
# [24] = test system: Plasma; assay: Plasma protein binding in human assessed as 1-(2-Diethylaminoethylamino)-3-[4-(trifluoromethyl)phenyl]-pyrido[1,2-a]benzimidazole-4-carbonitrile at 5 mg/kg, iv after 48 hrs by LC-MS analysis; type: ADME, organism-based; design: dose 5 mg/kg, route intravenous; settings: in vivo
# [25] = test system: Rattus norvegicus; assay: Apparent half life in fasted Sprague-Dawley rat assessed as 1-(2-Diethylaminoethylamino)-3-[4-(trifluoromethyl)phenyl]-pyrido[1,2-a]benzimidazole-4-carbonitrile at 20 mg/kg, po after 48 hrs by LC-MS analysis; type: ADME, organism-based; design: dose 20 mg/kg, route oral; settings: in vivo
# [26] = test system: Rattus norvegicus; assay: Drug excretion in fasted Sprague-Dawley rat urine assessed as 1-(2-Diethylaminoethylamino)-3-[4-(trifluoromethyl)phenyl]-pyrido[1,2-a]benzimidazole-4-carbonitrile at 20 mg/kg, po after 48 hrs by LC-MS analysis; type: ADME, organism-based; design: dose 20 mg/kg, route oral; settings: in vivo
# [27] = test system: Rattus norvegicus; assay: Tmax in fasted Sprague-Dawley rat assessed as 1-(2-Diethylaminoethylamino)-3-[4-(trifluoromethyl)phenyl]-pyrido[1,2-a]benzimidazole-4-carbonitrile at 20 mg/kg, po after 48 hrs by LC-MS analysis; type: ADME, organism-based; design: dose 20 mg/kg, route oral; settings: in vivo
# [28] = test system: Rattus norvegicus; assay: AUC (0 to tlast) in fasted Sprague-Dawley rat assessed as 1-(2-Diethylaminoethylamino)-3-[4-(trifluoromethyl)phenyl]-pyrido[1,2-a]benzimidazole-4-carbonitrile at 20 mg/kg, po after 48 hrs by LC-MS analysis; type: ADME, organism-based, Plasma; design: time < 48 hr, dose 20 mg/kg, route oral; settings: in vivo
# [29] = test system: Rattus norvegicus; assay: Drug excretion in fasted Sprague-Dawley rat urine assessed as 1-(2-Ethylaminoethylamino)-3-[4-(trifluoromethyl)phenyl]- pyrido[1,2-a]benzimidazole-4-carbonitrile level at 5 mg/kg, iv after 48 hrs by LC-MS analysis; type: ADME, organism-based; design: dose 5 mg/kg, route intravenous; settings: in vivo
# [30] = test system: Plasmodium falciparum
# Description: Antimalarial activity against multidrug-resistant Plasmodium falciparum K1 infected in human red blood cells assessed as 3H-hypoxanthine incorporation after 48 hrs by liquid scintillation counting
# [31] = test system: Plasmodium berghei; assay: Antimalarial activity against GFP-transfected Plasmodium berghei strain ANKA infected in NMRI mouse assessed as increase in mean survival time at 25 mg/kg, po administered as single dose (reference value: 5 days )
smiles,measurement,setting,value
CCN(CC)CCNc1cc(-c2ccc(C(F)(F)F)cc2)c(C#N)c2nc3ccccc3n12.Cl.Cl,pIC50,[1],4.05
same,t1/2(app),[2],7.3 h
same,microsomal CLint,[3],71.8 µL/min/mg
same,Vz,[4],18.9 L/kg
same,microsomal CLint,[5],127 µL/min/mg
same,microsomal CLint,[6],69.8 µL/min/mg
same,Activity,[7],91.9%
same,Tmax,[8],10.7 h
same,Cmax,[9],540 nM
same,Tmax,[10],20 h
same,AUClast,[11],1032 µM·min
same,Cmax,[12],920 nM
same,MSD,[13],10 days
same,Activity,[14],96.2%
same,MSD,[15],16 days
same,Activity,[16],59.97%
same,Activity,[17],78.22%
same,Activity,[18],24.38%
same,Activity,[19],70.33%
same,half-life,[20],0.413 h
same,half-life,[21],0.402 h
same,AUClast,[22],304 µM·min
same,PPB,[23],97.9%
same,PPB,[24],96.7%
same,t1/2(app),[25],6.4 h
same,Activity,[26],0.05%
same,Tmax,[27],4.13 h
same,AUClast,[28],290 µM·min
same,Activity,[29],0.08%
same,pIC50,[30],7.10
same,MSD,[31],8 days
